From publication PMC4508061, “Selectivity Profiling and Biological Activity of Novel β-Carbolines as Potent and Selective DYRK1 Kinase Inhibitors” (PLoS ONE, 2015)

What was measured:
Cell viability XTT assay = type: cell-based; settings: human, SH-SY5Y cells, read-out: Viability of treated cells relative to untreated control
ABL2 = ABL2 (Homo sapiens, UniProt P42684); experiment: ProQinase radiometric kinase panel; settings: mean of 2 exp.
ACK1 = ACK1 (Homo sapiens, UniProt Q07912); experiment: ProQinase radiometric kinase panel; settings: mean of 2 exp.
ACV-R1 = ACV-R1 (Homo sapiens, UniProt Q04771); experiment: ProQinase radiometric kinase panel; settings: mean of 2 exp.
CAMK2A = CAMK2A (Homo sapiens, UniProt Q9UQM7); experiment: ProQinase radiometric kinase panel; settings: mean of 2 exp.
CAMKK2 = CAMKK2 (Homo sapiens, UniProt Q96RR4); experiment: ProQinase radiometric kinase panel; settings: mean of 2 exp.
CDK1/CycA2 = CDK1/CycA2 (Homo sapiens, UniProt P06493); experiment: ProQinase radiometric kinase panel; settings: mean of 2 exp.
CDK1/CycE1 = CDK1/CycE1 (Homo sapiens, UniProt P06493); experiment: ProQinase radiometric kinase panel; settings: mean of 2 exp.
DAPK2 = DAPK2 (Homo sapiens, UniProt Q9UIK4); experiment: ProQinase radiometric kinase panel; settings: mean of 2 exp.
EPHA8 = EPHA8 (Homo sapiens, UniProt P29322); experiment: ProQinase radiometric kinase panel; settings: mean of 2 exp.
EPHB3 = EPHB3 (Homo sapiens, UniProt P54753); experiment: ProQinase radiometric kinase panel; settings: mean of 2 exp.
ERK2 = ERK2 (Homo sapiens, UniProt P28482); experiment: ProQinase radiometric kinase panel; settings: mean of 2 exp.
FYN = FYN (Homo sapiens, UniProt P06241); experiment: ProQinase radiometric kinase panel; settings: mean of 2 exp.
GRK7 = GRK7 (Homo sapiens, UniProt Q8WTQ7); experiment: ProQinase radiometric kinase panel; settings: mean of 2 exp.
HCK = HCK (Homo sapiens, UniProt P08631); experiment: ProQinase radiometric kinase panel; settings: mean of 2 exp.
HIPK3 = HIPK3 (Homo sapiens, UniProt Q9H422); experiment: ProQinase radiometric kinase panel; settings: mean of 2 exp.
HIPK4 = target: T1, HIPK4 (Homo sapiens, UniProt Q8NE63); experiment: ProQinase radiometric kinase panel; settings: mean of 2 exp.
T1 sequence (Q8NE63 1-616): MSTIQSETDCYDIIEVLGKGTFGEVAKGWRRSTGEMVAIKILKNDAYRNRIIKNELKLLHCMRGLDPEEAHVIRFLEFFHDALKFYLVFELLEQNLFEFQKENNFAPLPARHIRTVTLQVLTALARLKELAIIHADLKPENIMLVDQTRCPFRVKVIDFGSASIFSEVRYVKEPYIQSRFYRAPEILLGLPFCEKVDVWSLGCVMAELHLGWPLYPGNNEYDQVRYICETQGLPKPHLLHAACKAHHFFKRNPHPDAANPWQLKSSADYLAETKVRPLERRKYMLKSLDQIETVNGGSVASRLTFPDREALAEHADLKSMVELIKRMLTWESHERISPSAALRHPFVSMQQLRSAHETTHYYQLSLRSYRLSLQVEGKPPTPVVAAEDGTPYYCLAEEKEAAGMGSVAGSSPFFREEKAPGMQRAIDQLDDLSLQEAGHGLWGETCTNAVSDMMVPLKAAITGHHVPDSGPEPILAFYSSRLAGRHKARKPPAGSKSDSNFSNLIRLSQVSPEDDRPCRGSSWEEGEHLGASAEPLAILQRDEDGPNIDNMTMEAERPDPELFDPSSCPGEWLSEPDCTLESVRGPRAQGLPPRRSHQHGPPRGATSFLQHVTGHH

IGF1-R = IGF1-R (Homo sapiens, UniProt P08069); experiment: ProQinase radiometric kinase panel; settings: mean of 2 exp.
IKK-epsilon = IKK-epsilon (Homo sapiens, UniProt Q14164); experiment: ProQinase radiometric kinase panel; settings: mean of 2 exp.
JAK2 = JAK2 (Homo sapiens, UniProt O60674); experiment: ProQinase radiometric kinase panel; settings: mean of 2 exp.
LIMK2 = LIMK2 (Homo sapiens, UniProt P53671); experiment: ProQinase radiometric kinase panel; settings: mean of 2 exp.
MAP4K4 = MAP4K4 (Homo sapiens, UniProt O95819); experiment: ProQinase radiometric kinase panel; settings: mean of 2 exp.
MST4 = MST4 (Homo sapiens, UniProt Q9P289); experiment: ProQinase radiometric kinase panel; settings: mean of 2 exp.
NEK11 = NEK11 (Homo sapiens, UniProt Q8NG66); experiment: ProQinase radiometric kinase panel; settings: mean of 2 exp.
PIM1 = PIM1 (Homo sapiens, UniProt P11309); experiment: ProQinase radiometric kinase panel; settings: mean of 2 exp.
PKC-gamma = PKC-gamma (Homo sapiens, UniProt P05129); experiment: ProQinase radiometric kinase panel; settings: mean of 2 exp.
RET = RET (Homo sapiens, UniProt P07949); experiment: ProQinase radiometric kinase panel; settings: mean of 2 exp.
RON = RON (Homo sapiens, UniProt Q04912); experiment: ProQinase radiometric kinase panel; settings: mean of 2 exp.
RPS6KA1 = RPS6KA1 (Homo sapiens, UniProt Q15418); experiment: ProQinase radiometric kinase panel; settings: mean of 2 exp.
RPS6KA4 = RPS6KA4 (Homo sapiens, UniProt O75676); experiment: ProQinase radiometric kinase panel; settings: mean of 2 exp.
SRMS = SRMS (Homo sapiens, UniProt Q9H3Y6); experiment: ProQinase radiometric kinase panel; settings: mean of 2 exp.
VEGF-R1 = VEGF-R1 (Homo sapiens, UniProt P17948); experiment: ProQinase radiometric kinase panel; settings: mean of 2 exp.

Sequence of IGF1-R (P08069 31-1367): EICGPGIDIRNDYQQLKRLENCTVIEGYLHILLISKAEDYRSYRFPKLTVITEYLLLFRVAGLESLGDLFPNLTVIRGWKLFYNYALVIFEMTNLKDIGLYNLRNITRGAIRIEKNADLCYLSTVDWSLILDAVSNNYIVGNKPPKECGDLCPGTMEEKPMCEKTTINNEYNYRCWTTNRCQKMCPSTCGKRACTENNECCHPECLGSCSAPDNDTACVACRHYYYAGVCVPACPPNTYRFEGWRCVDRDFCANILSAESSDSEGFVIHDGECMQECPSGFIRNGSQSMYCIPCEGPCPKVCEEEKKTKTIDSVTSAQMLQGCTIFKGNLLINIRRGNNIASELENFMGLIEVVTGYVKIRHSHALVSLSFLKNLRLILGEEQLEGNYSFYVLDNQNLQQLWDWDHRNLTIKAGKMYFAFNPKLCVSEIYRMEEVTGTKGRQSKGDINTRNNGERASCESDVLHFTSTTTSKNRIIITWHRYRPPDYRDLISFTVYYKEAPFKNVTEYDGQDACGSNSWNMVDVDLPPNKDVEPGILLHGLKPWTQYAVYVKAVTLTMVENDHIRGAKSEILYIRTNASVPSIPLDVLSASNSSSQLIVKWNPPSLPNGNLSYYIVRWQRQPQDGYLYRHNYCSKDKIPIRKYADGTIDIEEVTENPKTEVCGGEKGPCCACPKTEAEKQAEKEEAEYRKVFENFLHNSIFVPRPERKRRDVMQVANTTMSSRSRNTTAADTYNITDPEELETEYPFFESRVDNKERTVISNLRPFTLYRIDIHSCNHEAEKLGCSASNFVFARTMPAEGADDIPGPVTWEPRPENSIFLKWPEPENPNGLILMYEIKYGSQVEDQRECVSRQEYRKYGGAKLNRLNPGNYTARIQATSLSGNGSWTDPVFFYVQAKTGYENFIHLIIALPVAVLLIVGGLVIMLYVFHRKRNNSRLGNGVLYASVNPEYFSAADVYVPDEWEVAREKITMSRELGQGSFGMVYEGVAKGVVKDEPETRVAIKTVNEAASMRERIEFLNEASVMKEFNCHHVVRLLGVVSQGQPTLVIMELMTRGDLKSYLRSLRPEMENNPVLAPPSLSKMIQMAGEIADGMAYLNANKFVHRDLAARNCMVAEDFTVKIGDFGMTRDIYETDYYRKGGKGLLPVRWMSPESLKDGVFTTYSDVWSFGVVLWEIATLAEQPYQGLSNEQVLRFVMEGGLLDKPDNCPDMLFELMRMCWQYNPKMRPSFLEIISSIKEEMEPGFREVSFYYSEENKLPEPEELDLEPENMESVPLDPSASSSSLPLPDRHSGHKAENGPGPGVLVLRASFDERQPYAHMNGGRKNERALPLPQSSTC
Sequence of ABL2 (P42684 whole entry): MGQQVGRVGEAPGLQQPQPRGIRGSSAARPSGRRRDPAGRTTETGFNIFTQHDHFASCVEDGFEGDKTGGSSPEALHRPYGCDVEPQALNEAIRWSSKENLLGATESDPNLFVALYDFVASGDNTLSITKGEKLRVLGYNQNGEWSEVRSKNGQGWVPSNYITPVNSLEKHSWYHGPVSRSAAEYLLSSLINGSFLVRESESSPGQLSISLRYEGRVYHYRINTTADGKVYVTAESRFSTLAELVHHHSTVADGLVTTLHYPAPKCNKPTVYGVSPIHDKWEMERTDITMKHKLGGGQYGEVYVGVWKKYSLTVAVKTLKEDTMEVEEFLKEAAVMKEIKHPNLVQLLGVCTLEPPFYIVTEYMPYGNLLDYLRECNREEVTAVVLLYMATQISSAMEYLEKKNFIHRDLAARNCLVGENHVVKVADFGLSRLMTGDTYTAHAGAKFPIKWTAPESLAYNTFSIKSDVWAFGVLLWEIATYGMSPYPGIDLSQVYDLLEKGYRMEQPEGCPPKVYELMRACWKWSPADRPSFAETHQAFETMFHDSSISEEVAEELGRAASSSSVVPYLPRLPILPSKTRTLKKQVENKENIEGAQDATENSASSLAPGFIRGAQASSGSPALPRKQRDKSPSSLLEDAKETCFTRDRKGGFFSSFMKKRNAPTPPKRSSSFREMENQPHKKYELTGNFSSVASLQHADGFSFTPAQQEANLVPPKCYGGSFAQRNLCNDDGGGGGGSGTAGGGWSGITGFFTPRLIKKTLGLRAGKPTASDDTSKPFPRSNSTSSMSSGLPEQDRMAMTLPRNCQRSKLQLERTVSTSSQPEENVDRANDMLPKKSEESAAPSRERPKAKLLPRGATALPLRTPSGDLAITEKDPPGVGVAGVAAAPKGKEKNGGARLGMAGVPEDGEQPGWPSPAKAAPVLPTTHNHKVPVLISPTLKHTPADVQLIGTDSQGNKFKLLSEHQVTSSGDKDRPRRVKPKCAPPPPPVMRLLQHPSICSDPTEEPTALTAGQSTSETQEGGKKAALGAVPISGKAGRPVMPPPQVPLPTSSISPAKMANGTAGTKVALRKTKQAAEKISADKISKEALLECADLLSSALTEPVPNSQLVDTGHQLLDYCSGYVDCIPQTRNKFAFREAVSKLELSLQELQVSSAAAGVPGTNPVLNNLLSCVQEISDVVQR
Sequence of CDK1/CycE1 (P06493 whole entry): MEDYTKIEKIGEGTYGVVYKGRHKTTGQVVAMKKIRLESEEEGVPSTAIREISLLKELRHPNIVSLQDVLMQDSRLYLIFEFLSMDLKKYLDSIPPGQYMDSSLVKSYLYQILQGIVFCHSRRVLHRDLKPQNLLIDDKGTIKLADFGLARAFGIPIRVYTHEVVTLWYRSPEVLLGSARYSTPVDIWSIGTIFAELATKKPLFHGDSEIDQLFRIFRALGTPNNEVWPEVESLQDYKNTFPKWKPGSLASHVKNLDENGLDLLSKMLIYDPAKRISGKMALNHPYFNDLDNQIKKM
Sequence of CDK1/CycE1 (P24864 whole entry partner): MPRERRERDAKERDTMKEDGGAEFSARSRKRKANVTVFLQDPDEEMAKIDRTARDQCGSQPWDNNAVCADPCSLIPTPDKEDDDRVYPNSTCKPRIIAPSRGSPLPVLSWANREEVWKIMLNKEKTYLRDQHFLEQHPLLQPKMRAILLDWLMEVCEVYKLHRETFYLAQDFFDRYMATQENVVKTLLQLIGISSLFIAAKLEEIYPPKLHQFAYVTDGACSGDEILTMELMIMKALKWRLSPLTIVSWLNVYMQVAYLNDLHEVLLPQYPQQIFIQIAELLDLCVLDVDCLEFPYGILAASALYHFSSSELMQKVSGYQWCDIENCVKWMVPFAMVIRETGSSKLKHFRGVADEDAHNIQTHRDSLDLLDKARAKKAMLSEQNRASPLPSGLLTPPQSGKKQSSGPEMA
Sequence of CDK1/CycA2 (P06493 whole entry): as the sequence (P06493 whole entry) above
Sequence of CDK1/CycA2 (P20248 whole entry partner): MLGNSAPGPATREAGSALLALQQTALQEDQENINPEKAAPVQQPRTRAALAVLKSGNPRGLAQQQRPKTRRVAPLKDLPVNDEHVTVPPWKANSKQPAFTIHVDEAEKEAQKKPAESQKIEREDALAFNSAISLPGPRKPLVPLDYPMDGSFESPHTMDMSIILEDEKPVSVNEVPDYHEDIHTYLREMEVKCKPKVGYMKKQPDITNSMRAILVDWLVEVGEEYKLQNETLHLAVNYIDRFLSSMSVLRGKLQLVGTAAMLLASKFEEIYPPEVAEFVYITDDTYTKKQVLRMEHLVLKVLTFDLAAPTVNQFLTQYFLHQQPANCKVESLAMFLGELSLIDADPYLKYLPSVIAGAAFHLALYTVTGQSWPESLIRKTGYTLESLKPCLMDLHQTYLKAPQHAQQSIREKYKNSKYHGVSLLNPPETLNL
Sequence of SRMS (Q9H3Y6 whole entry): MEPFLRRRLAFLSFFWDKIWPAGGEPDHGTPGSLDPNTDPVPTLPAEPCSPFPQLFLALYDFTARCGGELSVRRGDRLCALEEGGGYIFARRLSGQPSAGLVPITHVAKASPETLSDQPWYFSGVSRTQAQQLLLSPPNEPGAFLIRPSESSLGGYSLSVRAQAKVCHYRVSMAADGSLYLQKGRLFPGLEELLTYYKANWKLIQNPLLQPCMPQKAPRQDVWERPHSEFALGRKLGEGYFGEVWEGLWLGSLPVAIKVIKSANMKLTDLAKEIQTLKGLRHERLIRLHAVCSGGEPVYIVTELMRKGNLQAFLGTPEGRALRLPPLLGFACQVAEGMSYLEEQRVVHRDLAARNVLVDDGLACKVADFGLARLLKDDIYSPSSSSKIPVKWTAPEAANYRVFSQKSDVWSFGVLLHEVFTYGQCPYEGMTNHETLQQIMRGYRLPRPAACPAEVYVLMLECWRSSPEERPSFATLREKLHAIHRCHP
Sequence of CAMK2A (Q9UQM7 whole entry): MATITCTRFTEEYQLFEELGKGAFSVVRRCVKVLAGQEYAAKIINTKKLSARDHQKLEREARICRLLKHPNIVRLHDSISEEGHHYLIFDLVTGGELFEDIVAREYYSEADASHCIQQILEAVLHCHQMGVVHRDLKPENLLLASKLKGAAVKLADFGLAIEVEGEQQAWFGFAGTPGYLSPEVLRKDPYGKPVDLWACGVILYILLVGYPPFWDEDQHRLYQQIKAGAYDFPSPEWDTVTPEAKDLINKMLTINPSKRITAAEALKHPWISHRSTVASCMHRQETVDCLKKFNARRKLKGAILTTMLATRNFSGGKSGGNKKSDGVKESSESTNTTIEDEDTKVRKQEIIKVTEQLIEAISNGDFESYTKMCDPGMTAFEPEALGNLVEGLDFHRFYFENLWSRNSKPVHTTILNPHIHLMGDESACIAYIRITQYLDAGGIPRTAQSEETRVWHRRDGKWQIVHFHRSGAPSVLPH

COc1ccc2c3ccnc(Cl)c3n(CC#N)c2c1 [AnnH75]
viability at 3 days, 1 µM (Cell viability XTT assay; 1 μM): 89%
viability at 3 days, 3 µM (Cell viability XTT assay; 3 μM): 73%
residual activity at 1 µM, Mean (ABL2): 96 % of control
residual activity at 1 µM, Mean (ACK1): 97 % of control
residual activity at 1 µM, Mean (ACV-R1): 93 % of control
residual activity at 1 µM, Mean (CAMK2A): 79 % of control
residual activity at 1 µM, Mean (CAMKK2): 86 % of control
residual activity at 1 µM, Mean (CDK1/CycA2): 79 % of control
residual activity at 1 µM, Mean (CDK1/CycE1): 93 % of control
residual activity at 1 µM, Mean (DAPK2): 97 % of control
residual activity at 1 µM, Mean (EPHA8): 89 % of control
residual activity at 1 µM, Mean (EPHB3): 96 % of control
residual activity at 1 µM, Mean (ERK2): 87 % of control
residual activity at 1 µM, Mean (FYN): 92 % of control
residual activity at 1 µM, Mean (GRK7): 103 % of control
residual activity at 1 µM, Mean (HCK): 101 % of control
residual activity at 1 µM, Mean (HIPK3): 88 % of control
residual activity at 1 µM, Mean (HIPK4): 88 % of control
residual activity at 1 µM, Mean (IGF1-R): 83 % of control
residual activity at 1 µM, Mean (IKK-epsilon): 95 % of control
residual activity at 1 µM, Mean (JAK2): 99 % of control
residual activity at 1 µM, Mean (LIMK2): 94 % of control
residual activity at 1 µM, Mean (MAP4K4): 85 % of control
residual activity at 1 µM, Mean (MST4): 92 % of control
residual activity at 1 µM, Mean (NEK11): 94 % of control
residual activity at 1 µM, Mean (PIM1): 41 % of control
residual activity at 1 µM, Mean (PKC-gamma): 108 % of control
residual activity at 1 µM, Mean (RET): 89 % of control
residual activity at 1 µM, Mean (RON): 96 % of control
residual activity at 1 µM, Mean (RPS6KA1): 63 % of control
residual activity at 1 µM, Mean (RPS6KA4): 95 % of control
residual activity at 1 µM, Mean (SRMS): 92 % of control
residual activity at 1 µM, Mean (VEGF-R1): 89 % of control
